Measured values published in PubChem BioAssay (NCI).
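Values below derive from 48-hour exposures of cells grown in 96-well plates, with endpoints linearly interpolated between the two concentrations bracketing the appropriate inhibition level. GI50 is the concentration that inhibits growth by half. TGI denotes the concentration required for complete inhibition of growth.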

Experiments:
Test in all cases: NCI anticancer screen, dose series, 48 h
IGROV1 ovarian = tested on: IGROV1 ovarian
TK-10 renal = tested on: TK-10 renal
NCI-H460 lung = tested on: NCI-H460 lung
A498 renal = tested on: A498 renal
A549 NSCLC = tested on: A549 NSCLC
SN12C renal = tested on: SN12C renal
HCC-2998 colon = tested on: HCC-2998 colon
SNB-75 CNS = tested on: SNB-75 CNS
HS 578T breast = tested on: HS 578T breast
MDA-MB-231 breast = tested on: MDA-MB-231 breast

SMILES | TGI (IGROV1 ovarian) [µM] | TGI (TK-10 renal) [µM] | TGI (NCI-H460 lung) [µM] | TGI (A498 renal) [µM] | TGI (A549 NSCLC) [µM] | TGI (SN12C renal) [µM] | TGI (HCC-2998 colon) [µM] | TGI (SNB-75 CNS) [µM] | TGI (HS 578T breast) [µM] | TGI (MDA-MB-231 breast) [µM] | GI50 (IGROV1 ovarian) [µM] | GI50 (TK-10 renal) [µM] | GI50 (NCI-H460 lung) [µM] | GI50 (MDA-MB-231 breast) [µM] | GI50 (A498 renal) [µM] | GI50 (A549 NSCLC) [µM] | GI50 (SN12C renal) [µM] | GI50 (HS 578T breast) [µM] | GI50 (SNB-75 CNS) [µM] | GI50 (HCC-2998 colon) [µM]
CC1=C(C(=O)Nc2ccccc2)C(c2ccc([N+](=O)[O-])cc2)C(C(=O)Nc2ccccc2)=C(C)N1 | > 100 | > 100 | 70.3 | 93 | > 100 | 79.3 | 45.8 | 82.1 | – | – | – | – | – | – | – | – | – | – | – | –
Cc1nnc(N=Nc2c(O)[nH]c3c(Cl)cc(Cl)cc23)n1N | > 100 | > 100 | > 100 | > 100 | > 100 | > 100 | > 100 | – | – | – | – | – | – | – | – | – | – | – | – | –
O=C(Cc1nc2ccccc2s1)Nc1ccc(Cl)cc1 | > 100 | > 100 | > 100 | > 100 | > 100 | > 100 | > 100 | > 100 | – | – | – | – | – | – | – | – | – | – | – | –
COC(=O)NC1(NC(=O)OC)NC(=O)c2cc(OC)c(OC)cc2N1 | > 100 | > 100 | > 100 | – | > 100 | > 100 | – | – | 85.1 | – | – | – | – | – | – | – | – | – | – | –
CCSC(SCC)c1cc2c(cc1Br)OCO2 | > 100 | > 100 | 49.4 | 86.7 | > 100 | > 100 | 67.5 | 62.9 | – | – | – | – | – | – | – | – | – | – | – | –
COc1cc(OC)c2ssc3c(OC)cc(OC)c4ssc1c2-c43 | > 100 | > 100 | > 100 | > 100 | > 100 | > 100 | > 100 | > 100 | – | – | – | – | – | – | – | – | – | – | – | –
O=C(NCCO)c1cc2c(cn1)[nH]c1ccccc12 | > 100 | > 100 | > 100 | > 100 | > 100 | > 100 | 33.2 | > 100 | – | – | – | – | – | – | – | – | – | – | – | –
COc1cc2c(c(OC)c1O)-c1ccc(OC)c(=O)cc1[C@@H](NC(=O)C(F)(F)F)CC2 | 0.695 | > 100 | – | 2.21 | > 100 | > 100 | 14.1 | – | – | 0.628 | – | – | – | – | – | – | – | – | – | –
CN(C)c1ncnc2c1Cc1ccccc1C(=O)N2C | > 100 | > 100 | > 100 | – | > 100 | > 100 | > 100 | > 100 | – | – | – | – | – | – | – | – | – | – | – | –
NC(=O)/C(=C\c1ccncc1)c1cccc2ccccc12 | > 100 | > 100 | > 100 | – | > 100 | > 100 | – | > 100 | > 100 | > 100 | – | – | – | – | – | – | – | – | – | –
CO/[N+]([O-])=C\C(=O)N/C=C/C(=O)O | > 100 | – | > 100 | > 100 | – | > 100 | > 100 | > 100 | > 100 | > 100 | – | – | – | – | – | – | – | – | – | –
Cc1ccc(S(=O)(=O)Oc2ccc([N+](=O)[O-])cc2[N+](=O)[O-])cc1 | 8.37 | 17.4 | 39 | 24.9 | 22.2 | 17.3 | – | 21.3 | > 100 | 22.1 | 2.46 | 4.54 | 15.4 | 6.7 | 11.8 | 8.53 | 3.78 | 21.5 | 6.77 | –
CCOC(CCCNCCCn1c2c(c3cc(OC)c(OC)cc3c1=O)C(=O)c1cc3c(cc1-2)OCO3)OCC | 9.66 | 13.2 | 7.3 | 12.1 | 11.8 | 10.8 | – | 10.3 | 12.7 | 10.1 | 0.889 | 6.79 | 0.884 | 2.65 | 5.79 | 5.73 | 5.04 | 5.76 | 0.443 | –
CNC1C(O)C(OC2C(N)CC(N)C(OC3OC(CN)=CCC3N)C2O)OCC1(C)O (stereo not given) | > 100 | – | > 100 | > 100 | > 100 | > 100 | > 100 | > 100 | > 100 | > 100 | – | – | – | – | – | – | – | – | – | –
N.N.N.N.O=NN1CCCCCC1(P(=O)([O-])[O-])P(=O)([O-])[O-].[Pt+4].[Pt+4] | > 100 | > 100 | > 100 | > 100 | > 100 | > 100 | > 100 | > 100 | – | – | > 100 | > 100 | > 100 | – | > 100 | > 100 | > 100 | – | > 100 | > 100
C[C@H]1CC[C@H]([C@@H](C)[C@H]2[C@@H](O)C[C@H]3[C@@H]4CC[C@H]5C[C@@H](O)CC[C@]5(C)[C@H]4CC[C@]23C)NC1 | 35.4 | 38.1 | 39.7 | 32.1 | 51 | 35.5 | 35.5 | – | 57.7 | 47.9 | – | – | – | – | – | – | – | – | – | –
CSc1nc(NC2OCC(OC(C)=O)C(OC(C)=O)C2OC(C)=O)c(N=C(C)C(C)=O)c(=O)n1C (stereo not given) | > 100 | > 100 | > 100 | > 100 | > 100 | > 100 | > 100 | > 100 | – | – | – | – | – | – | – | – | – | – | – | –
O=Cc1ccc(-c2ccc(-c3nc4ccccc4[nH]3)cc2)s1 | > 100 | 69.1 | 29.7 | – | > 100 | 92.2 | 81.3 | – | – | > 100 | 34.8 | 23.5 | 13.1 | 45.8 | – | 40.4 | 31.6 | – | – | 29.3
CCOC(=O)Cc1nc2ccccc2s1 | > 100 | 55 | 39.6 | 36 | 54.2 | 30.5 | > 100 | 94.1 | – | – | – | – | – | – | – | – | – | – | – | –
CCN(CC)CCCC(C)Nc1cc(-c2ccc(C(F)(F)F)cc2)c(C#N)c2nc3ccccc3n12 (stereo not given) | – | 5.29 | 3.61 | 2.9 | 10.9 | – | 3.67 | – | 4.86 | 3.42 | – | 2.49 | 1.82 | 1.58 | 1.47 | 3.44 | – | 1.82 | – | 1.91
O=C1Nc2cc(Cl)ccc2N=CC1NC(=O)C(c1ccccc1)c1ccccc1Cl (stereo not given) | > 100 | > 100 | > 100 | > 100 | > 100 | > 100 | > 100 | > 100 | – | – | – | – | – | – | – | – | – | – | – | –
